# Patent publication US20260224588A1, “BENZODIAZEPINONE-DERIVED INHIBITORS OF EGFR AND HER2” (The Research Foundation for the State University of New York, priority 2023, published 2026)
# Tests used:
# Assay in all cases: KINOMEscan
# Type in all cases: binding
# Details in all cases: 1 μM of compound 4; read-out: POC
# MAP3K4 = MAP3K4 (Homo sapiens, UniProt Q9Y6R4)
# LTK = LTK (Homo sapiens, UniProt P29376)
# CDK4-cyclinD1 = CDK4-cyclinD1 (Homo sapiens, UniProt P11802)
# DYRK1B = DYRK1B (Homo sapiens, UniProt Q9Y463)
# Sequence of DYRK1B (Q9Y463 whole entry): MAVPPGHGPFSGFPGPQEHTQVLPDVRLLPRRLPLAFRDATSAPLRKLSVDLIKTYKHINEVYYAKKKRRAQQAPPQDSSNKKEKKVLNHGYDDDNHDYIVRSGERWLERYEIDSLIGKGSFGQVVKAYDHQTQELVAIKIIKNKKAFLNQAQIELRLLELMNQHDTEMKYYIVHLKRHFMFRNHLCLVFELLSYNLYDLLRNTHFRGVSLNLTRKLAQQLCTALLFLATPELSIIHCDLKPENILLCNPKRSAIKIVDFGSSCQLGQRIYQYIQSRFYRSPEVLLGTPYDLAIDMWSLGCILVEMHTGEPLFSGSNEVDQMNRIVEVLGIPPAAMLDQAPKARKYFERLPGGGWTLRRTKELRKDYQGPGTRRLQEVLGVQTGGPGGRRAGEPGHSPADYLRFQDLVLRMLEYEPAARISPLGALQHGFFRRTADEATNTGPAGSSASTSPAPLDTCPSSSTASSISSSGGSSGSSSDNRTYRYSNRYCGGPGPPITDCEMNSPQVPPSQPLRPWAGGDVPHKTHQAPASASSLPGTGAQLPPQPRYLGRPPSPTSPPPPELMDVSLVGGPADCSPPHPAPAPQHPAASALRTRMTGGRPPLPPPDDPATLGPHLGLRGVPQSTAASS
# NEK2 = NEK2 (Homo sapiens, UniProt P51955)
# Sequence of NEK2 (P51955 whole entry): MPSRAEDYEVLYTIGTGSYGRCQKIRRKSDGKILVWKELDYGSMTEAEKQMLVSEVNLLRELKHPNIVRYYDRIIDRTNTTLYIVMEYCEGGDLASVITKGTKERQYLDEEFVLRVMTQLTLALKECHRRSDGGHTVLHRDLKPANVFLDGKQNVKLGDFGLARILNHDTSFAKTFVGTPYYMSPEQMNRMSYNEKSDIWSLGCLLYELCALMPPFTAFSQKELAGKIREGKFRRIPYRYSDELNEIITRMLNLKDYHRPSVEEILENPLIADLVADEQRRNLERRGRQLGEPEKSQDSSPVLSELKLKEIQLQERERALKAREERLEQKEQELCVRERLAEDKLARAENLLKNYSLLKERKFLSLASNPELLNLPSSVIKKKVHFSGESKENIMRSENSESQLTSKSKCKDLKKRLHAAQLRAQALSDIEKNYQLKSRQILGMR
# CSF1R-autoinhibited = CSF1R-autoinhibited (Homo sapiens, UniProt P07333)
# ANKK1 = ANKK1 (Homo sapiens, UniProt Q8NFD2)
# Sequence of ANKK1 (Q8NFD2 whole entry): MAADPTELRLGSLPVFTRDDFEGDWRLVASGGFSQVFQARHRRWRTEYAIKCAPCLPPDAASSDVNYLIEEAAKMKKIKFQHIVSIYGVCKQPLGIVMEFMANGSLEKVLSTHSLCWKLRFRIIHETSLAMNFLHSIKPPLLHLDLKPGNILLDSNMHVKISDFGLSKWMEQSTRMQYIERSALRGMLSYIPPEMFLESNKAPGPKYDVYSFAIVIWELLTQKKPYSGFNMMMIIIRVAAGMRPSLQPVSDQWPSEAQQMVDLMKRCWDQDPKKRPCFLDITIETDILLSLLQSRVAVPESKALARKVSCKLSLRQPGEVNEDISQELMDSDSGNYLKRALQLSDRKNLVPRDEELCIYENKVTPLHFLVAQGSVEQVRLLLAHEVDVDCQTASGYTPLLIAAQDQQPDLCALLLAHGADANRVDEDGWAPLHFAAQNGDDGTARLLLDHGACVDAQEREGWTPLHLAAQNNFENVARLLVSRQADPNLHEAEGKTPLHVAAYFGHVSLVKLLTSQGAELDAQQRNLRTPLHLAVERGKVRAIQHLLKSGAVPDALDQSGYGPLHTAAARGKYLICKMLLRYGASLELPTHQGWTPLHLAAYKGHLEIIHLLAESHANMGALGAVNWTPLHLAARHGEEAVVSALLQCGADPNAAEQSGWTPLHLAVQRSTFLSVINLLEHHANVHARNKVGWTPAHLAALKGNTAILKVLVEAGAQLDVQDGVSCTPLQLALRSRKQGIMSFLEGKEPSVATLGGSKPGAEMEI
# PIK3CA(H1047Y) = PIK3CA(H1047Y) (Homo sapiens, UniProt P42336, H1047Y)
# DYRK1A = DYRK1A (Homo sapiens, UniProt Q13627)
# SLK = target: T1, SLK (Homo sapiens, UniProt Q9H2G2)
# T1 construct: purchased Eurofins DiscoverX (KINOMEscan service)
# FLT3(R834Q) = target: T2, FLT3(R834Q) (Homo sapiens, UniProt P36888, R834Q)
# T2 construct: purchased Eurofins DiscoverX Corporation
# FLT3(N841I) = target: T3, FLT3(N841I) (Homo sapiens, UniProt P36888, N841I)
# T3 construct: purchased Eurofins DiscoverX Corporation
# CDK9 = CDK9 (Homo sapiens, UniProt P50750)
# [1] = target: T4, ABL1(H396P)-nonphosphorylated (Homo sapiens, UniProt P00519, H396P)
# T4 construct: purchased Eurofins DiscoverX Corporation
# [2] = target: T5, RSK2(Kin.Dom.2-C-terminal) (Homo sapiens, UniProt P51812)
# T5 construct: RSK2(Kin.Dom.2-C-terminal); purchased Eurofins DiscoverX Corporation (KINOMEscan screening service)
# CSNK1G2 = CSNK1G2 (Homo sapiens, UniProt P78368)
# CAMK1B = CAMK1B (Homo sapiens, UniProt Q6P2M8)
# PDGFRB = target: T6, PDGFRB (Homo sapiens, UniProt P09619)
# T6 construct: purchased Eurofins DiscoverX Corporation (KINOMEscan)
# PAK4 = target: T7, PAK4 (Homo sapiens, UniProt O96013)
# T7 construct: purchased Eurofins DiscoverX Corporation (KINOMEscan)
# T7 sequence (O96013 whole entry): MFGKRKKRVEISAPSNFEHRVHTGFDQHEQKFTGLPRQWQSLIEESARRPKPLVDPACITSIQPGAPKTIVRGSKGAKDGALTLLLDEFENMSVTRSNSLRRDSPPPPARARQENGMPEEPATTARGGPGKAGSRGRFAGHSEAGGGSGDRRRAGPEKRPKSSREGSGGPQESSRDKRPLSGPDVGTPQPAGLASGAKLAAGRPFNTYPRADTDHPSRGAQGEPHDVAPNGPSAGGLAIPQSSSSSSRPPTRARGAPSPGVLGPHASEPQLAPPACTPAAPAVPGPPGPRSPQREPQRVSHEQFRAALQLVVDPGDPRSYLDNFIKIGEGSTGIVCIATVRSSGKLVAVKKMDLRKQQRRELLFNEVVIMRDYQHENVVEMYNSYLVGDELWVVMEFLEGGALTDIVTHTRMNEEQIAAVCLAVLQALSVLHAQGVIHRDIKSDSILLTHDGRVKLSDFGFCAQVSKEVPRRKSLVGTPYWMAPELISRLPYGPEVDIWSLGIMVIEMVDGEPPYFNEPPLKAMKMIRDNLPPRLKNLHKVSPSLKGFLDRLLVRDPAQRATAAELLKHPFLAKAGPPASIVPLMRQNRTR
# [3] = target: JAK1(JH2domain-pseudokinase) (Homo sapiens, UniProt P23458)
# ABL2 = target: T8, ABL2 (Homo sapiens, UniProt P42684)
# T8 construct: purchased Eurofins DiscoverX Corporation
# VRK2 = target: T9, VRK2 (Homo sapiens, UniProt Q86Y07)
# T9 construct: purchased Eurofins DiscoverX
# T9 sequence (Q86Y07 whole entry): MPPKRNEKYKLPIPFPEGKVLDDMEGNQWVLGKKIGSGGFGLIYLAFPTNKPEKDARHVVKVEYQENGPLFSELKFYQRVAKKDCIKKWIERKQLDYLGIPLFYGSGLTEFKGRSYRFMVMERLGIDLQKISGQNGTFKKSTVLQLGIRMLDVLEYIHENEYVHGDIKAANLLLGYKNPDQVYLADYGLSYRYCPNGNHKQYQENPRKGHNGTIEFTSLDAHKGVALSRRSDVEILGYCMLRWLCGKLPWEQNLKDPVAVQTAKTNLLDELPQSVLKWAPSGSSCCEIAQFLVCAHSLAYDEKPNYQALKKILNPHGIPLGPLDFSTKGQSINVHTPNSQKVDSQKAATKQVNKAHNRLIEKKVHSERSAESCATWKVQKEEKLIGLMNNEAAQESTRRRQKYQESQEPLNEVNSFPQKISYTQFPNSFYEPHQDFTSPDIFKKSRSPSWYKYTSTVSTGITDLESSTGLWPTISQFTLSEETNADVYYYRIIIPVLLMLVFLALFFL
# DMPK = DMPK (Homo sapiens, UniProt Q09013)
# EGFR(L861Q) = target: T10, EGFR(L861Q) (Homo sapiens, UniProt P00533, L861Q)
# T10 construct: purchased Eurofins DiscoverX (KINOMEscan service)
# T10 sequence (P00533 25-1210 L861Q): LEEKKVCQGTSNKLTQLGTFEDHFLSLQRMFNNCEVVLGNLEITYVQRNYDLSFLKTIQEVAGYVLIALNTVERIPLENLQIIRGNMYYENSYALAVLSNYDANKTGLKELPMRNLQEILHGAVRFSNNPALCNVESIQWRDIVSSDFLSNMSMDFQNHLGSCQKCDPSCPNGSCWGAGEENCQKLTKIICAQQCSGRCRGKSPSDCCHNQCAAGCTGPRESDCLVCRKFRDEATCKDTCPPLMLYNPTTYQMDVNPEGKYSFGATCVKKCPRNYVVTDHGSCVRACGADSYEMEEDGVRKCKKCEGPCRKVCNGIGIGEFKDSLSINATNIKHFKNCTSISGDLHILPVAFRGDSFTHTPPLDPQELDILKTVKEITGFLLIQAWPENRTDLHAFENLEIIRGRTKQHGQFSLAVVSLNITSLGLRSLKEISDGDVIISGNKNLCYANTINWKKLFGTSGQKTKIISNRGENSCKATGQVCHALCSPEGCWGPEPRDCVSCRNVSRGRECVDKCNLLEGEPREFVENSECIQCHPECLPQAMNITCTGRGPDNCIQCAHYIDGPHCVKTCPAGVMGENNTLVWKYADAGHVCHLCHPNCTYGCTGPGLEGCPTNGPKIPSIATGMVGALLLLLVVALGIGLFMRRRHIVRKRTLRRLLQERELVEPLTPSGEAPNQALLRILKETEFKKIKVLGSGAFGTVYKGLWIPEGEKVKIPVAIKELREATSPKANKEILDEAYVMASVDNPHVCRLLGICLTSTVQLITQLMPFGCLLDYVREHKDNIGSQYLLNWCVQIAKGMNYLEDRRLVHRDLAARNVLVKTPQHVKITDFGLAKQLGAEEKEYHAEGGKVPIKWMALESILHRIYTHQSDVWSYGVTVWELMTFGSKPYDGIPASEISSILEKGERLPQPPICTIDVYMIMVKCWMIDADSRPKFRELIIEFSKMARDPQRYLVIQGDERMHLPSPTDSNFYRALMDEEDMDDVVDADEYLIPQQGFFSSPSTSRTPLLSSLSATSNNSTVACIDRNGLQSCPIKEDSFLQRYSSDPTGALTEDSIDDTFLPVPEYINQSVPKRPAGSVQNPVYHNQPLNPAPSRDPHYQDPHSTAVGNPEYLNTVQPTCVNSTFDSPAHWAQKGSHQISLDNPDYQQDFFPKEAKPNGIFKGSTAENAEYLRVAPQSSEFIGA
# EPHA6 = target: T11, EPHA6 (Homo sapiens, UniProt Q9UF33)
# T11 construct: purchased Eurofins DiscoverX (KINOMEscan service)
# ACVR1 = target: T12, ACVR1 (Homo sapiens, UniProt Q04771)
# T12 construct: purchased Eurofins DiscoverX Corporation
# DAPK1 = DAPK1 (Homo sapiens, UniProt P53355)
# [4] = target: T13, TYK2(JH1domain-catalytic) (Homo sapiens, UniProt P29597)
# T13 construct: TYK2(JH1domain-catalytic); purchased Eurofins DiscoverX
# CDKL1 = CDKL1 (Homo sapiens, UniProt Q00532)
# DLK = DLK (Homo sapiens, UniProt Q12852)
# FLT3-autoinhibited = target: T14, FLT3-autoinhibited (Homo sapiens, UniProt P36888)
# T14 construct: purchased Eurofins DiscoverX Corporation
# [5] = target: T15, RSK1(Kin.Dom.1-N-terminal) (Homo sapiens, UniProt Q15418)
# T15 construct: RSK1(Kin.Dom.1-N-terminal); purchased Eurofins DiscoverX Corporation (KINOMEscan screening service)
# T15 sequence (Q15418 62-321 limits assumed): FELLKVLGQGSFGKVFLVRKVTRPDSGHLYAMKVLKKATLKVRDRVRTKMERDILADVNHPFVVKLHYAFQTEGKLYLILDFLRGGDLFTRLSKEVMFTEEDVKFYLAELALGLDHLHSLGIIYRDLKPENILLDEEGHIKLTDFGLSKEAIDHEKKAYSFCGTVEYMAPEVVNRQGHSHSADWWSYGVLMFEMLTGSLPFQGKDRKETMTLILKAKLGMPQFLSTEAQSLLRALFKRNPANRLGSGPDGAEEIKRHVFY
# [6] = target: T16, RSK3(Kin.Dom.2-C-terminal) (Homo sapiens, UniProt Q15349)
# T16 construct: RSK3(Kin.Dom.2-C-terminal); purchased Eurofins DiscoverX (KINOMEscan service)
# MAP3K15 = MAP3K15 (Homo sapiens, UniProt Q6ZN16)
# CDK8 = CDK8 (Homo sapiens, UniProt P49336)
# CDKL5 = CDKL5 (Homo sapiens, UniProt O76039)
# PIM1 = PIM1 (Homo sapiens, UniProt P11309)
# Sequence of CDK4-cyclinD1 (P11802 whole entry): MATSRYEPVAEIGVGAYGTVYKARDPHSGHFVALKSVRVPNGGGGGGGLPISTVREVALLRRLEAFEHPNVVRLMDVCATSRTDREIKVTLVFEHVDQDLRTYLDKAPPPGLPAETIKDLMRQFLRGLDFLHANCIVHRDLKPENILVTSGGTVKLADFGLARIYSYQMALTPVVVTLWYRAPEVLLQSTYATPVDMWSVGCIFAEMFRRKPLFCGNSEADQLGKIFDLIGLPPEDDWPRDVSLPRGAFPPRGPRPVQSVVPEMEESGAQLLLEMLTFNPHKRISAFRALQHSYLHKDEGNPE
# Sequence of CDK4-cyclinD1 (P24385 whole entry partner): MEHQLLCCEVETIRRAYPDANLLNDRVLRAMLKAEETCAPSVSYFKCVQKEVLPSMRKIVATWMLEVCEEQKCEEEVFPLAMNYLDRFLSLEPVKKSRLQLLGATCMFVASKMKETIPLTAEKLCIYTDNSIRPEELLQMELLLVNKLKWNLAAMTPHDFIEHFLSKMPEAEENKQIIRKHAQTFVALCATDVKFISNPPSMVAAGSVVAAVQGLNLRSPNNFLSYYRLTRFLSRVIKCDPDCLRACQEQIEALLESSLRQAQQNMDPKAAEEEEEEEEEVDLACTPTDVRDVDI
smiles,measurement,setting,value
"C=CC(=O)Nc1ccc(OC)c(Nc2cc(-c3[nH]c(CC)nc3-c3cccc(NC(=O)c4cccc5c4NC(=O)c4ccccc4N5)c3)ccn2)c1 [Compound 4, N-(3-(5-(2-((5-Acrylamido-2-methoxyphenyl)amino)pyridin-4-yl)-2-ethyl-1H-imidazol-4-yl)phenyl)-11-oxo-10,11-dihydro-5H-dibenzo[b,e][1,4]diazepine-9-carboxamide]",remaining binding at 1 µM,MAP3K4,100%
same,remaining binding at 1 µM,LTK,48%
same,remaining binding at 1 µM,CDK4-cyclinD1,94%
same,remaining binding at 1 µM,DYRK1B,88%
same,remaining binding at 1 µM,NEK2,98%
same,remaining binding at 1 µM,CSF1R-autoinhibited,69%
same,remaining binding at 1 µM,ANKK1,87%
same,remaining binding at 1 µM,PIK3CA(H1047Y),66%
same,remaining binding at 1 µM,DYRK1A,100%
same,remaining binding at 1 µM,SLK,100%
same,remaining binding at 1 µM,FLT3(R834Q),100%
same,remaining binding at 1 µM,FLT3(N841I),97%
same,remaining binding at 1 µM,CDK9,100%
same,remaining binding at 1 µM,[1],97%
same,remaining binding at 1 µM,[2],100%
same,remaining binding at 1 µM,CSNK1G2,91%
same,remaining binding at 1 µM,CAMK1B,94%
same,remaining binding at 1 µM,PDGFRB,100%
same,remaining binding at 1 µM,PAK4,89%
same,remaining binding at 1 µM,[3],83%
same,remaining binding at 1 µM,ABL2,92%
same,remaining binding at 1 µM,VRK2,100%
same,remaining binding at 1 µM,DMPK,45%
same,remaining binding at 1 µM,EGFR(L861Q),2.7%
same,remaining binding at 1 µM,EPHA6,90%
same,remaining binding at 1 µM,ACVR1,96%
same,remaining binding at 1 µM,DAPK1,86%
same,remaining binding at 1 µM,[4],91%
same,remaining binding at 1 µM,CDKL1,100%
same,remaining binding at 1 µM,DLK,100%
same,remaining binding at 1 µM,FLT3-autoinhibited,100%
same,remaining binding at 1 µM,[5],4.7%
same,remaining binding at 1 µM,[6],80%
same,remaining binding at 1 µM,MAP3K15,74%
same,remaining binding at 1 µM,CDK8,81%
same,remaining binding at 1 µM,CDKL5,98%
same,remaining binding at 1 µM,PIM1,94%
